# Laboratory results reported in ChEMBL document CHEMBL1208745, “6-Phenyl-1H-imidazo[4,5-c]pyridine-4-carbonitrile as cathepsin S inhibitors” (Bioorg Med Chem Lett, 2010).
# The source made the active and inactive calls. No cut-off for these calls is given here.
# What was measured:
# [1] = molecular target: Cathepsin B (Homo sapiens) (UniProt P07858); experiment: Inhibition of human cathepsin B by fluorescence assay
# [2] = molecular target: Procathepsin L (Homo sapiens) (UniProt P07711); experiment: Inhibition of human cathepsin L by fluorescence assay
# Procathepsin L (Homo sapiens), sequence (P07711 114-333 limits assumed): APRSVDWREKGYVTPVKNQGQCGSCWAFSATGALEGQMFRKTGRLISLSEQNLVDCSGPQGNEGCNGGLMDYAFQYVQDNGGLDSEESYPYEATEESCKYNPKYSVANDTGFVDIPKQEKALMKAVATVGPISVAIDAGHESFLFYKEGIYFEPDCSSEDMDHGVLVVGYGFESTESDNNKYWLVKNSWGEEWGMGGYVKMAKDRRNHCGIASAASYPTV
# Cathepsin S [3] = molecular target: T1, Cathepsin S (Homo sapiens, UniProt P25774); experiment: Inhibition of human cathepsin S by fluorescence assay
# T1 sequence (P25774 whole entry): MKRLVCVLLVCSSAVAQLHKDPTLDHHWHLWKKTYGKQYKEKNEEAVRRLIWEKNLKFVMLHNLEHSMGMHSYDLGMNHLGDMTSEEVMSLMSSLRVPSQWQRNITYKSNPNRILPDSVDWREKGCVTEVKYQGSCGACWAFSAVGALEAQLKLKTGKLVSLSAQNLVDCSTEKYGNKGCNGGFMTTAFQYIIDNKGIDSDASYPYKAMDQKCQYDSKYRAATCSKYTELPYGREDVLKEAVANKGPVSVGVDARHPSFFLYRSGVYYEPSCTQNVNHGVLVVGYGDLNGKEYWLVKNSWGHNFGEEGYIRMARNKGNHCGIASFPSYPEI
# Cathepsin K = molecular target: T2, Cathepsin K (Homo sapiens, UniProt P43235); experiment: Inhibition of human cathepsin K by fluorescence assay
# T2 sequence (P43235 whole entry): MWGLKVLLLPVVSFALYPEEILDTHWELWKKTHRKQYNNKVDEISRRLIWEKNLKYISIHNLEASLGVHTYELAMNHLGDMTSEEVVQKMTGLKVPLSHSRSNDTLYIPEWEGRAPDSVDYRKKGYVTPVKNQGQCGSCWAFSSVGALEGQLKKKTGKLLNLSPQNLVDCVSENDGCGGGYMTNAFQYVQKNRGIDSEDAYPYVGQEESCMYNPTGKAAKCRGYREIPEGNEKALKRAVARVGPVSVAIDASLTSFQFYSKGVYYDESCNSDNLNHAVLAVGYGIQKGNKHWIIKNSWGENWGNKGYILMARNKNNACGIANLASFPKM
# Cathepsin S [4] = molecular target: T1, Cathepsin S; experiment: Inhibition of cathepsin S-mediated proteolytic cleavage of MHC2 associated invariant chain in human JY cells assessed as accumulation of lip10 by Western blot analysis; type: cell-based
# [5] = Chemical stability of the compound assessed as half life at 1.25 mM at pH 7.5 by nitrile war-head stability assay in presence of GSH; type: physicochemical
# Cathepsin S [6] = molecular target: T3, Cathepsin S (Mus musculus, UniProt O70370); experiment: Inhibition of mouse cathepsin S by fluorescence assay
# T3 sequence (O70370 whole entry): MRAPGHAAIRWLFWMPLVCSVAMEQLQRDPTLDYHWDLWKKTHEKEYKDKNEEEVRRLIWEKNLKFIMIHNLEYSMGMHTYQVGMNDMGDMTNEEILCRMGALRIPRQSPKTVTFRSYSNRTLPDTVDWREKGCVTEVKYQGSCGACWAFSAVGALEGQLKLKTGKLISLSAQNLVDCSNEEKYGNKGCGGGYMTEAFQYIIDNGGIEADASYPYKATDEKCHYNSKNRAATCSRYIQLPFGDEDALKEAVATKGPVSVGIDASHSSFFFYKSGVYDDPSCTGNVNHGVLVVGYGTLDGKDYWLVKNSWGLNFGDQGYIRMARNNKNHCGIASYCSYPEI
# Mus musculus = experiment: Induction of Lip10 accumulation in C57/BL6 mouse spleen at 0.3 mg/kg, po after 4 hrs by Western blot analysis; type: functional, organism-based; set-up: dose 0.3 mg/kg; settings: C57Bl/6
# [7] = Plasma clearance in Wistar rat at 2 mg/kg, iv and 10 mg/kg, po; type: ADME, organism-based
# [8] = Volume of distribution at steady state in Wistar rat at 2 mg/kg, iv and 10 mg/kg, po; type: ADME, organism-based; settings: in vivo, read-out: Vdss
# [9] = Oral bioavailability in Wistar rat at 10 mg/kg; type: ADME, organism-based; settings: in vivo
# Cathepsin S [10] = molecular target: T3, Cathepsin S; experiment: Inhibition of cathepsin S-mediated proteolytic cleavage of MHC2 associated invariant chain in mouse splenocytes assessed as accumulation of lip10 by Western blot analysis; type: cell-based
# [11] = Ratio of drug level in spleen to plasma in C57/BL6 mouse at 0.3 mg/kg, po; type: ADME, organism-based, C57Bl/6; set-up: dose 0.3 mg/kg, route oral
# [12] = Chemical stability of the compound assessed as half life at 1.24 mM at pH 7.5 by nitrile war-head stability assay in presence of GSH; type: physicochemical
# [13] = Chemical stability of the compound assessed as half life at 1.15 mM at pH 7.5 by nitrile war-head stability assay in presence of GSH; type: physicochemical
inhibition [1],inhibition [2],IC50 (Cathepsin S [3]),IC50 (Cathepsin K),SMILES,also measured
inactive,inactive,7.2 nM,331 nM,CCN1CCN(CCCOc2ccc(-c3cc4c(ncn4C)c(C#N)n3)cc2C(F)(F)F)CC1,IC50 (Cathepsin S [4]): 63 nM; half-life at 1250 µM [5]: > 100 h; IC50 (Cathepsin S [6]): 2.6 nM; Activity (Mus musculus): Active; clearance [7]: 28 mL/min/kg; Vd [8]: 2 L/kg; bioavailability [9]: 9%; IC50 (Cathepsin S [10]): 6.5 nM; Kp [11]: 50
inactive,inactive,12.6 nM,> 10000 nM,Cn1cnc2c(C#N)nc(-c3ccc(OCc4cccnc4)c(C(F)(F)F)c3)cc21,–
inactive,inactive,10 nM,> 10000 nM,Cn1cnc2c(C#N)nc(-c3ccc(OCc4ccncc4)c(C(F)(F)F)c3)cc21,–
–,–,32 nM,447 nM,CCOc1ccc(-c2cc3c(ncn3CCN(C)C)c(C#N)n2)cc1C(F)(F)F,IC50 (Cathepsin S [4]): 854 nM
inactive,inactive,–,468 nM,CN1CCN(CCCOc2ccc(-c3cc4c(ncn4C)c(C#N)n3)cc2C(F)(F)F)CC1,IC50 (Cathepsin S [4]): 106 nM
inactive,inactive,7.8 nM,1170 nM,Cn1cnc2c(C#N)nc(-c3ccc(OCCN4CCNC(=O)C4)c(C(F)(F)F)c3)cc21,–
inactive,inactive,–,–,CCOc1ccc(-c2cccc(C#N)n2)cc1C(F)(F)F,–
–,–,37 nM,1660 nM,CCOc1ccc(-c2cc3c(ncn3CCN3CCOCC3)c(C#N)n2)cc1C(F)(F)F,IC50 (Cathepsin S [4]): 10000 nM
–,–,27 nM,270 nM,CCOc1ccc(-c2cc3c(ncn3CCCN(C)C)c(C#N)n2)cc1C(F)(F)F,IC50 (Cathepsin S [4]): 260 nM
–,–,1050 nM,2000 nM,N#Cc1nc(-c2cccc(C(F)(F)F)c2)cc2nc[nH]c12,–
inactive,inactive,24 nM,1070 nM,Cn1cnc2c(C#N)nc(-c3ccc(CCCO)c(C(F)(F)F)c3)cc21,–
inactive,inactive,145 nM,2820 nM,N#Cc1nc(-c2ccc(OCCO)c(C(F)(F)F)c2)cc2[nH]cnc12,–
inactive,inactive,71 nM,3160 nM,Cn1cnc2c(C#N)nc(-c3ccc(CCO)c(C(F)(F)F)c3)cc21,–
inactive,inactive,–,–,CCOc1ccc(-c2nc(C#N)c3nc[nH]c3n2)cc1C(F)(F)F,–
inactive,inactive,20 nM,2290 nM,Cn1cnc2c(C#N)nc(-c3ccc(OCc4ccccn4)c(C(F)(F)F)c3)cc21,IC50 (Cathepsin S [4]): 853 nM; IC50 (Cathepsin S [6]): 2.5 nM; clearance [7]: 327 mL/min/kg; Vd [8]: 0.7 L/kg; bioavailability [9]: 54%
inactive,inactive,3240 nM,> 10000 nM,CC(=O)Nc1ccc(-c2cc3[nH]cnc3c(C#N)n2)cc1C(F)(F)F,–
inactive,inactive,339 nM,8510 nM,COc1ccc(-c2cc3[nH]cnc3c(C#N)n2)cc1C(F)(F)F,–
inactive,inactive,40 nM,1260 nM,CCOc1ccc(-c2cc3c(ncn3C)c(C#N)n2)cc1C(F)(F)F,–
–,–,200 nM,7760 nM,CCCOc1ccc(-c2cc3nc[nH]c3c(C#N)n2)cc1C(F)(F)F,–

inhibition [1],inhibition [2],IC50 (Cathepsin S [3]),IC50 (Cathepsin K),SMILES,also measured
inactive,inactive,25 nM,8310 nM,CCOc1ccc(-c2cc3[nH]cnc3c(C#N)n2)cc1C(F)(F)F,–
inactive,inactive,14.1 nM,240 nM,Cn1cnc2c(C#N)nc(-c3ccc(OCC4CCNCC4)c(C(F)(F)F)c3)cc21,–
inactive,inactive,–,–,N#Cc1nc(-c2cccc(C(F)(F)F)c2)cc2[nH]cnc12,–
–,–,661 nM,> 10000 nM,Cn1ccc2c(C#N)nc(-c3ccc(OCCN4CCCC4=O)c(C(F)(F)F)c3)cc21,–
inactive,inactive,63 nM,2690 nM,N#Cc1nc(-c2ccc(OCCCO)c(C(F)(F)F)c2)cc2[nH]cnc12,–
inactive,inactive,209 nM,5890 nM,CN(C)CCOc1ccc(-c2cc3c(ncn3C)c(C#N)n2)cc1C(F)(F)F,–
inactive,inactive,11 nM,2040 nM,Cc1cccc(CCOc2ccc(-c3cc4c(ncn4C)c(C#N)n3)cc2C(F)(F)F)n1,IC50 (Cathepsin S [4]): 267 nM
–,–,–,–,CN1CCN(CCCOc2ccc(-c3cccc(C#N)n3)cc2C(F)(F)F)CC1,half-life at 1240 µM [12]: > 100 h
inactive,inactive,8.3 nM,178 nM,Cn1cnc2c(C#N)nc(-c3ccc(OCCC4CCNCC4)c(C(F)(F)F)c3)cc21,IC50 (Cathepsin S [4]): 9 nM
inactive,inactive,7.8 nM,2510 nM,Cn1cnc2c(C#N)nc(-c3ccc(OCCN4CCCC4=O)c(C(F)(F)F)c3)cc21,IC50 (Cathepsin S [4]): 1420 nM
inactive,inactive,105 nM,> 10000 nM,CCNc1ccc(-c2cc3[nH]cnc3c(C#N)n2)cc1C(F)(F)F,–
inactive,inactive,41 nM,776 nM,CN(C)CCCOc1ccc(-c2cc3c(ncn3C)c(C#N)n2)cc1C(F)(F)F,IC50 (Cathepsin S [4]): 84 nM; IC50 (Cathepsin S [6]): 2.6 nM; clearance [7]: 10 mL/min/kg; Vd [8]: 58 L/kg; bioavailability [9]: 58%
–,–,–,–,CN1CCN(CCCOc2ccc(-c3ccnc(C#N)n3)cc2C(F)(F)F)CC1,half-life at 1150 µM [13]: < 0.25 h
inactive,inactive,–,–,CCCOc1ccc(-c2cc3[nH]cnc3c(C#N)n2)cc1C(F)(F)F,–
inactive,inactive,28 nM,871 nM,Cn1cnc2c(C#N)nc(-c3ccc(OCCCN4CCCC4)c(C(F)(F)F)c3)cc21,IC50 (Cathepsin S [4]): 89 nM
inactive,inactive,316 nM,891 nM,Cn1cnc2c(C#N)nc(-c3ccc(OC4CCNCC4)c(C(F)(F)F)c3)cc21,–
–,–,35 nM,513 nM,CCOc1ccc(-c2cc3c(ncn3CCCN3CCOCC3)c(C#N)n2)cc1C(F)(F)F,–
inactive,inactive,676 nM,> 10000 nM,N#Cc1nc(-c2ccc(OCc3ccccc3)c(C(F)(F)F)c2)cc2[nH]cnc12,–
